Columns and labels:
Acinetobacter baumannii [1] = test: Antimicrobial activity against SAM/CTX/AK/CRO/CN drugs-resistant Acinetobacter baumannii 0004 assessed as inhibition of bacterial growth incubated for approximately 18 hrs by resazurin dye based broth microdilution assay; format: functional
Staphylococcus aureus = test: Antimicrobial activity against Staphylococcus aureus ATCC 25923 assessed as inhibition of bacterial growth incubated for approximately 18 hrs by resazurin dye based broth microdilution assay; format: functional
[2] = Hemolytic activity in Sprague-Dawley rat erythrocytes incubated for 1 hr by multifunctional microplate reader analysis; format: toxicity, cell-based, Erythrocyte; settings: for HC50 at 1 h: Sprague-Dawley, erythrocytes; for HC5: erythrocyte, 1 h
Candida albicans = test: Antimicrobial activity against Candida albicans ATCC 14053 assessed as inhibition of bacterial growth incubated for approximately 18 hrs by resazurin dye based broth microdilution assay; format: functional
Acinetobacter baumannii [3] = test: Antimicrobial activity against SAM/CTX/AK/CRO/CN drugs-resistant Acinetobacter baumannii 0101 assessed as inhibition of bacterial growth incubated for approximately 18 hrs by resazurin dye based broth microdilution assay; format: functional
Acinetobacter baumannii [4] = test: Antimicrobial activity against CTX/CRO/CN drugs-resistant Acinetobacter baumannii 0214 assessed as inhibition of bacterial growth incubated for approximately 18 hrs by resazurin dye based broth microdilution assay; format: functional
Acinetobacter baumannii [5] = test: Antimicrobial activity against SAM/CTX/CRO/CN drugs-resistant Acinetobacter baumannii 0320 assessed as inhibition of bacterial growth incubated for approximately 18 hrs by resazurin dye based broth microdilution assay; format: functional
Acinetobacter baumannii [6] = test: Antimicrobial activity against CTX/AK/CRO drugs-resistant Acinetobacter baumannii 0110 assessed as inhibition of bacterial growth incubated for approximately 18 hrs by resazurin dye based broth microdilution assay; format: functional
Acinetobacter baumannii [7] = test: Antimicrobial activity against SAM-resistant Acinetobacter baumannii 0413 assessed as inhibition of bacterial growth incubated for approximately 18 hrs by resazurin dye based broth microdilution assay; format: functional

| Substance | MIC (Acinetobacter baumannii [1]) | MIC (Staphylococcus aureus) | HC50 at 1 h [2] | HC5 [2] | MIC (Candida albicans) | MIC (Acinetobacter baumannii [3]) | MIC (Acinetobacter baumannii [4]) | MIC (Acinetobacter baumannii [5]) | MIC (Acinetobacter baumannii [6]) | MIC (Acinetobacter baumannii [7]) |
| --- | --- | --- | --- | --- | --- | --- | --- | --- | --- | --- |
| H-RWRKIWFLWRYKIW-OH | 128 µM |  |  |  |  |  |  |  |  |  |
| H-RLIKIWWIYRRKWR-OH | 128 µM |  |  |  |  |  |  |  |  |  |
| H-IWLAVWKGLLKRWLH-OH | 2 µM | 2 µM | 10.5 µM | 1.17 µM | 16 µM |  |  |  |  |  |
| H-GWAKRLVQRLADWLRKF-OH | 2 µM | 8 µM | 43.9 µM | 7.22 µM | > 32 µM |  |  |  |  |  |
| H-KRIWRKILWWIKWR-OH | 8 µM |  |  |  |  |  |  |  |  |  |
| H-RIWVLIYRWYRKWY-OH | 32 µM |  |  |  |  |  |  |  |  |  |
| H-RQIKIWFQNRRWGLQLK-OH | 16 µM | > 32 µM | > 256 µM | > 256 µM | > 32 µM | 16 µM | 16 µM | 16 µM | 16 µM | 8 µM |
| H-VLAANRLVRRLAQKIAR-OH | 32 µM | > 32 µM | > 256 µM | > 256 µM | 16 µM |  |  |  |  |  |
| H-KIRWLLYWIRRKRL-OH | 16 µM |  |  |  |  |  |  |  |  |  |
| H-AWKAKLKRLAIAWKR-OH | 4 µM | > 32 µM | > 256 µM | > 256 µM | 8 µM | 8 µM | 4 µM | 4 µM | 8 µM | 4 µM |
| H-KLKRWLVWLIRKLW-OH | 16 µM |  |  |  |  |  |  |  |  |  |
| H-KWARRLVYLIANYWKKR-OH | 2 µM | > 32 µM | 117 µM | 14.63 µM | > 32 µM |  |  |  |  |  |
| H-RIRFKWRWWMRIRLKWY-OH | 16 µM | > 32 µM | > 256 µM | > 256 µM | > 32 µM |  |  |  |  |  |
| H-RLWKIWWKIWRVLI-OH | 16 µM |  |  |  |  |  |  |  |  |  |
| H-RRRLILWILWRRLR-OH | 4 µM | 8 µM | 166 µM | 10.09 µM | > 32 µM |  |  |  |  |  |
| H-RLWKIWLVWIRWRNQK-OH | 16 µM | > 32 µM | 330 µM | 27.41 µM | > 32 µM |  |  |  |  |  |
| H-FWKKVFKWIWRVLHNFG-OH | 8 µM |  | 12.6 µM | 1.28 µM |  |  |  |  |  |  |
| H-KWFKKLPKILHKLAKKW-OH | 2 µM | 2 µM | 294 µM | 38.67 µM | > 32 µM | 2 µM | 4 µM | 2 µM | 2 µM | 2 µM |
| H-LWKILKKIWRVLKNWN-OH | 4 µM | 8 µM | 35.9 µM | 7.59 µM | 32 µM |  |  |  |  |  |
| H-GLWKRWKKVLWGAKNKI-OH | 2 µM | 16 µM | > 256 µM | > 256 µM | 8 µM | 4 µM | 4 µM | 2 µM | 4 µM | 2 µM |
| H-WFKKLLKLALKWAKYA-OH | 4 µM | 2 µM | 13.1 µM | 1.46 µM | > 32 µM |  |  |  |  |  |
| H-KWKIFKRIVGRILRYLR-OH | 4 µM | 8 µM | 15.7 µM | 1.47 µM | > 32 µM |  |  |  |  |  |
